Measurements taken from patent US10458988B2, “Biotinylated luminescent probe” (priority 2017, dated 2019).

Key:
firefly luciferase = biological target: T1, firefly luciferase (Photinus pyralis, UniProt P08659); test: Bioluminescence spectrum of probe B-YL with firefly luciferase; assay type: biochemical
T1 construct: purchased Sigma
Method: After the synthesis of the biotinylated probe, B-YL, the probe can be evaluated with a commercially available firefly luciferase. […] The mechanism for generating bioluminescence is shown in Scheme 2.
In a well of 96 quartz plate (500 μl), HEPES buffer (30 mM) solution (400 μl, pH=7.7) containing MgSO4 (5.0 mM), ATP (2.6 mM), DTT (3.5 mM), CoA (1.5 mM) and commercially available firefly luciferase (40 μg/ml), was prepared. The probe B-YL was then added and mixed to a final concentration (32 μM). Bioluminescence spectrum of B-YL was then taken immediately with instrument SynergyMx (BioTek, VT).

U87-luc cells = test: Bioluminescence imaging of luciferase-transfected brain cancer cells in vitro; assay type: cell-based; conditions: B-YL 100 μg/mL, L-15 medium with MgCl2 5 mM
Method: (§1) Triplicate wells were plated with increasing numbers of either U87 cells without luciferase (a) or with luciferase (b). In each plate: Row 1, wells 1-3, no cells; wells 4-6, 1,875 cells per well. Row 2, wells 1-3, 3,750 cells per well; wells 4-6, 7,500 cells per well. Row 3, wells 1-3, 15,000 cells per well; wells 4-6, 30,000 cells per well. Row 4, wells 1-3, 60,000 cells per well. Incubation buffer, Leibovitz's L-15 medium with MgCl2 (5 mM). Each well was incubated with B-YL (100 μg/mL). Plates were imaged using an IVIS 200 In vivo Imaging System. Escalating luminescence was observed only in wells containing luciferase-expressing cells (b).
(§2) The B-YL substrate can be incubated with the brain cancer cell line U87-luc, which was derived from the parental brain cancer cell line U87 after stable transfection with a luciferase gene. […] B-YL clearly adsorbed across the cell membrane and was oxidized by luciferase. Therefore, B-YL can be used for the detection of the cancer cells by bioluminescence.
(§3) The EGF-B-SA-B-YL complex can be tested for the ability to target and image brain cancer cell lines that overexpress the biomarker EGFR using bioluminescence in vitro. U87 (gray hatch bars) and U87-luc (black bars) cells can be treated with free B-YL (150 μg/m L), untargeted B-SA-B-YL complex (150 μg/mL) or EGFR-targeted EGF-B-SA-B-YL complex (50-150 µg/mL). Bioluminescence were detected immediately. […]

U87 cells = test: Bioluminescence imaging of parental brain cancer cells without luciferase in vitro; assay type: cell-based
Method: as §1, §2, §3

T1 sequence (P08659 whole entry): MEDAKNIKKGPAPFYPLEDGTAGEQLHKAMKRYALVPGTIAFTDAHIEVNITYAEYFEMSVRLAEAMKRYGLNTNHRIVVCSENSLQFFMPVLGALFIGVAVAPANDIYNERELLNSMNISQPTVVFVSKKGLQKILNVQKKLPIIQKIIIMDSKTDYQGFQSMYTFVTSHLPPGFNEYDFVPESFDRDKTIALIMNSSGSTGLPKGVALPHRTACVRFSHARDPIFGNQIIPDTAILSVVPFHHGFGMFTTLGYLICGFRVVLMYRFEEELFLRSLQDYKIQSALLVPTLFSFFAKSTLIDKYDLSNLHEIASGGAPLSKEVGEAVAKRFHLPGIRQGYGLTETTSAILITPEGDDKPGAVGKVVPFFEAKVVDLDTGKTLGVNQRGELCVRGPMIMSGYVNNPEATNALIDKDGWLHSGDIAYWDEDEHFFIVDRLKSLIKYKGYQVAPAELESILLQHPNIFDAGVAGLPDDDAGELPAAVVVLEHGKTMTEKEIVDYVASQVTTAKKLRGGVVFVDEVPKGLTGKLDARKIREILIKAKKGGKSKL

6-(3-N—{N-[5-(Hexahydro-2-oxo-1H-thieno[3,4-d]imidazol-4-yl)-1-oxopentyl]-, [3aS-(3aα,4β, 6aα)]}-aminoethyl-poly(ethylene glycol)21-oxyethyl-1H-1,2,3-triazol-5-yl-methylamino-oxomethyl-amino)-2-benzothiazolyl]-4,5-dihydro-,(4S)-4-thiazolecarboxylic acid [B-YL]
substrate of firefly luciferase (firefly luciferase; commercial firefly luciferase): found to be a substrate of firefly luciferase
bioluminescence maximum emission (firefly luciferase; commercial firefly luciferase 40 μg/ml, B-YL 32 μM, HEPES buffer pH 7.7): 590 nm
number of U87-luc cells at which bioluminescence signal was detected (FIG. 1b) (U87-luc cells): at least 7,500 cells per well
bioluminescence activity in parental U87 cells (FIG. 1a) (U87 cells; B-YL 100 μg/mL, 0-60,000 cells per well, L-15 medium with MgCl2 5 mM): did not reveal bioluminescence activity regardless of the number of cells
conversion to bioluminescence photons by U87 cells (FIG. 2) (U87 cells; U87 cells without luciferase): Neither of the complexes (B-SA-B-YL or EGF-B-SA-B-YL) nor free B-YL were converted to bioluminescence photons
